This is an account of results in patent US20170239201A1, “GLYCOLIC ACID ENHANCES SPERM MOBILITY” (MAX-PLANCK-GESELLSCHAT ZUR FORDERUNG DER WISSENSCHAFTEN E.V., priority 2014, published 2017).

In one series the test system is mouse sperm. Description: Mouse sperm motility and progressivity (CASA system, Hamilton-Thorne). The class given is cell-based. The following applies: for difference in treated mouse sperm compared to controls: motility/progressivity. As to the method: Extract epididymis and open them in CPA medium (18% Raffinose and 3% Low fat milk powder). Let spermatozoids swim out for 5 min at room temperature.
For each condition, take 4 μl of mouse sperm in CPA and place in 196 μl of HTF medium from the incubator (at 37° C.). Let it incubate 5 min. in the 37° C. incubator, add substances to the HTF medium (see formulation below) and incubate for different times.
At each time point, fill a Leja-Slide with 25 μl of the HTF buffer containing the diluted sperm and place in the sperm counting machine (Hamilton-Thorne, USA). The machine takes 10 pictures per samples and analyses the different parameters (motility, progressivity,etc. . . . ). Sperm motility analysis was done blindly. Glycolic acid and […] were given to the technician from the facility as Substance 1 and Substance 2, only later did […] get to know which belong to what compound.
(§1) The examples tested the effect of 10 to 30 mM of glycolic acid and D-lactate on mouse sperm motility and progressivity or on bull motility. For this, epididymic mouse sperm from two strains (WT and DJ-1) or ejaculated frozen bull sperm was obtained. Sperm from each individual was divided and treated either with glycolic acid or with the vehicle for up to 90 minutes. Mouse sperm motility and progressivity was determined with the help of an automatized machine (CASA system, Hamilton-Thorne Research, http://www.hamiltonthorne.com/index.php/products/casa-products/sperm-analysis-systems-research) that uses high frequency photo images and image analysis to analyze these parameters. Frozen ejaculated bull sperm motility was assessed by an experienced technician. Mouse sperm from WT and DJ-1 mice was divided by the software into motile and non-motile sperm according to standardized parameters and results are given as percentages of the total population identified as motile sperm (FIG. 1-4). Sperm progressivity alone was analyzed only on the mouse sperm, as only the software from the CASA system is sensitive enough to make this analysis and this machine can only analyze mouse sperm. Bull sperm was divided into progressive motile, motile (the sum of progressive motile and motile on the spot) and the rest (FIGS. 5, 6 and 7).

In the next series the test system is human sperm. Description: Human sperm motility, fresh and defrosted sperm. The settings on record: 30 and 60 mM, significant (p<0.05) over whole experiment. The format is cell-based. The procedure:
Human sperm was collected from donors after ejaculation and used on the same day. Frozen human sperm was defrosted in a warm bath before starting the experiments. The regional ethical committee approved sample collection and use of human sperm. Both fresh and frozen human sperm were centrifuged, the supernatant was removed and the sperms were resuspended in HTF-like medium alone or with glycolic acid. Sperms were incubated with the 30 and 60 mM glycolic acid for 10 min before the measurements began. Measurements were performed by an experienced technician from the urology department.
(§2) This enhancement can be observed in human sperm, both defrosted and fresh, and defrosted bull sperm. Two-way ANOVA analysis was used (much more restrictive than a t-Test). * means p<0.05, **p<0.01, ***p<0.001 and […]. […] Both sperm motility and mitochondrial measurements are normalized to a control at time-point 0.

The test system of series [1] is sperm mitochondrial membrane potential. The series is described as follows: Mitochondrial membrane potential of sperm (JC-1 and FACS sorting). The format is cell-based. The settings on record: JC-1, FACS; normalized to control at time-point 0; FIG. 8.
Text: as §2

A further series relates to bull sperm. The series is described as follows: Bull sperm motility and progressive motility, defrosted sperm, assessed by technician. The format is cell-based. As to the method: Frozen bull sperm was defrosted in a warm bath and centrifuged. The supernatant was removed and the sperms were resuspended in HTF-like medium alone or with glycolic acid. Sperms were incubated with the 10, 20 and 30 mM glycolic acid for 10 min. before the measurements began. Measurements were performed by an experienced technician from the urology department.
as §1

The conditions of series [2]: estimated; cited from earlier work.
Where [3] appears, read: 10 mM, 30 minutes after application, average stated for mouse and bull sperm.

Consider `C[C@@H](O)C(=O)O` [D-lactate, reference compound], for which, in the series on mouse sperm, the “difference in treated mouse sperm compared to controls” value is “not”.
For the compound `O=C(O)CO` [Glycolic acid, 2-hydroxyethanoic acid], the “sperm motility (FIG. 8), normalized to control at time-point 0” value with human sperm is reported as “enhances sperm motility”; with bull sperm (defrosted bull sperm, significant (p<0.05) over whole experiment) it was “enhances sperm motility”. In addition, the “increase in sperm motility (percentage of motile spermatozoids)” value with mouse sperm (setting [3]) and in the series on bull sperm (setting [3]) was 19% each time. Further, the “increase in sperm progressivity (percentage of motile spermatozoids that move forward)” value in the series with mouse sperm (setting [3]) and in the series on bull sperm (setting [3]) was 28% throughout. The “time over which the enhancement is sustained” value in the series with mouse sperm (both species) and in the series with bull sperm (both species) was “up to 90 min” throughout. Also, in the series with mouse sperm, the “difference in treated mouse sperm compared to controls” value is on record as “significance difference”. Further, in series [1], the mitochondrial membrane potential entry is recorded as “did not increase”. The “bull sperm motility and progressivity at higher concentrations” value in the series on bull sperm (20 and 30 mM compared to 10 mM glycolic acid) is recorded as “further increase”. The “sperm mobility, in particular sperm progressivity, at higher concentrations” value in the series on bull sperm (concentrations up to 60 mM, data not shown) is on record as “increase”.
Consider `OCCOCCO` [diethylene glycol], for which the minimum toxic dose in series [2] is 0.14 mg glycolic acid per kg of body weight.
